One molecule from patent US20120064008A1, “COMPOSITIONS FOR THE TREATMENT OF METASTATIC CANCER AND METHODS OF USE THEREOF” (priority 2009, published 2012) can be followed below.

Each structure is given as a SMILES string. Where two headings read alike, the source gives them in different places.

In data set [1] the test system is DU145-TR cells. The data set is described as follows: Normalized mitotic index, DU145-TR. As to conditions: 100 nM. The format is cell-based, human.
Another data set has as its system PC-3M cells. Nature of the data set: Normalized mitotic index (histone H3 phospho-Serine-28), PC-3M. Format: cell-based. As to conditions: Homo sapiens, at 1 μM, normalized against vehicle-treated cells, read-out: Normalized mitotic index PC-3M. From the text:
(§1) The mitotic index for each agent was normalized against those obtained from vehicle-treated cells, and compared with the activity of paclitaxel, a known inducer of mitotic arrest.

Data set [2] has as its system DU145 cells. Nature of the data set: % apoptotic cells, DU145. Format: cell-based, human. Conditions: 100 nM.
A further data set relates to PC-3MLN4 cells. Nature of the data set: Normalized mitotic index (histone H3 phospho-Serine-28), PC-3MLN4. The format is cell-based. As to conditions: Homo sapiens, at 1 μM; normalized against vehicle-treated cells; read-out: Normalized mitotic index PC-3MLN4.
From the text: as §1

Data set [3] concerns PC3-TR cells. The data set is described as follows: % apoptotic cells, PC3-TR. The format is cell-based, human. Conditions: 100 nM.
Data set [4] concerns PC3 cells. The data set is described as follows: % apoptotic cells, PC3. Format: cell-based, human. Conditions: 100 nM.
Data set [5] has as its system paclitaxel-resistant DU145-TR prostate cancer cells. The data set is described as follows: Cyquant cell viability assay, DU145-TR. Conditions: 72 hours. The format is cell-based, human. As to the method:
(§2) The cytotoxic effects of paclitaxel, fenbendazole, and albendazole were compared in paclitaxel-resistant PC3-TR and DU145-TR prostate cancer cells with their paclitaxel-sensitive counterparts, PC3 and DU145 cells. Cells were treated for 72 hours with vehicle, paclitaxel, fenbendazole or albendazole in various doses. Cell viability was measured using Cyquant assay, and percent control was calculated by dividing the fluorescent reading from drug-treated cells with those from vehicle-treated cells, indicating percentage of cell survival.

The next data set relates to AT6.1 cells. The data set is described as follows: Normalized mitotic index (histone H3 phospho-Serine-28), AT6.1. Format: cell-based. Conditions: Rattus norvegicus, at 1 μM; normalized against vehicle-treated cells; read-out: Normalized mitotic index AT6.1.
From the text: as §1

Data set [6] deals with PC3 cells. Nature of the data set: Normalized mitotic index, PC3. The format is cell-based, human. Conditions: 100 nM.
The next data set has as its system PC-3TxR cells. The data set is described as follows: Subcutaneous PC-3TxR tumors in nude mice. The format is in vivo. Conditions: 10 mg/kg three times a week for 3 weeks.
Data set [7] deals with DU145 cells. The data set is described as follows: Normalized mitotic index, DU145. Format: cell-based, human. Conditions: 100 nM.
Data set [8] is described as follows: Combination with paclitaxel, Cyquant cell growth inhibition, CompuSyn median-dose effect analysis. The format is cell-based. As to conditions: alone or in combination, read-out: Dose Tax. The protocol:
Cell growth inhibition assays were performed using Cyquant reagent as described above. Drug interactions were quantitated by median-dose effect analysis and combination index values as well as dose reduction index were derived using CompuSyn software (ComboSyn, Inc.), as described previously in the literature. CI values of <1, =1, and >1 indicate synergism, additivity and antagonism between the drugs, respectively.
All benzimidazole drugs were prepared using the combination carrier and diluted with culture medium prior to treatment.

In data set [9] the test system is DU145-TR cells. Nature of the data set: % apoptotic cells, DU145-TR. Format: cell-based, human. As to conditions: 100 nM.
Data set [10] has as its system PC3-TR cells. The data set is described as follows: Normalized mitotic index, PC3-TR. The format is cell-based, human. As to conditions: 100 nM.
Data set [11] concerns AT6.1 Dunning rat prostate carcinoma. Nature of the data set: Survival in intravenous AT6.1 Dunning rat prostate carcinoma lung metastasis model. Format: in vivo, nu/nu mice. Conditions: 10 mg/kg three times a week. The protocol: Many anti-tumor drugs are tested only for their ability to prevent primary tumor growth or to prevent the dissemination of metastatic cells. To accomplish this, the drug is usually administered shortly after the primary tumor is established. […] The benzimidazoles described herein were evaluated in an experimental metastases model in the lungs of nude mice following tail-vein injection of Dunning rat AT6.1 prostate carcinoma. […] In order to achieve greater bioavailability, we first solubilized benzimidazoles in DNTC formulation and then diluted with saline prior to injection.
Inbred male nu/nu mice age 6-8 weeks were obtained from Massachusetts General Hospital (Boston, Mass.). The mice were virus antibody free, age and weight matched for experimental use and fed with a balanced rodent diet ad libitum. AT6.1 Dunning rat prostate cells were maintained as described above. 1×10^4 log-phase cells were injected via tail vein in 0.1 mL Hanks solution. Vehicle or drug treatment was started on day 5 post inoculation and given three times a week (Monday, Wednesday and Friday) via intraperitoneal injection in 0.5 mL volume. Benzimidazole drugs were prepared in the combination carrier [DMSO (12.5%), NMP (37.5%), TWEEN®-80 (25%) and CrEL (25%)] and diluted in saline. Vehicle control was prepared by diluting the combination carrier with saline.
During the course of treatment, the mice were monitored for toxicity by measuring body weight. […] Animals were euthanized with CO2 and tissues were collected for further analysis. The animals and experiments used in these studies were approved by the institutional animal care committee according to Children's Hospital Boston ARCH guidelines.
To distinguish differences in survival between these groups, the percent increase in life span (ILS %), defined as the percent increase in the mean time to death of drug-treated animals over the corresponding time to death for vehicle-treated mice, was calculated.

In data set [12] the test system is paclitaxel-resistant PC3-TR prostate cancer cells. Nature of the data set: Cyquant cell viability assay, PC3-TR. The format is cell-based, human. Conditions: 72 hours. As to the method:
as §2

Procedure for PC-3TxR cells: PC-3TxR cells were inoculated subcutaneously in the flanks of the nude mice. When the tumors reached approximately 100 mm^3 in size, the mice were treated with vehicle, paclitaxel (10 mg/kg), fenbendazole (100 mg/kg) or albendazole (100 mg/kg) three times a week for 3 weeks. These benzimidazoles were prepared in DNTC and diluted with saline prior to injection.
PC-3TxR cells were inoculated subcutaneously in the flanks of the nude mice. When the tumors reached approximately 100 mm3 in size, the mice were treated with vehicle, paclitaxel (10 mg/kg), fenbendazole (100 mg/kg) or albendazole (100 mg/kg) three times a week for 3 weeks. These benzimidazoles were prepared in DNTC and diluted with saline prior to injection.

In the case of `CC(=O)O[C@H]1C(=O)[C@@]2(C)[C@H]([C@H](OC(=O)c3ccccc3)[C@]3(O)C[C@H](OC(=O)[C@H](O)[C@@H](NC(=O)c4ccccc4)c4ccccc4)C(C)=C1C3(C)C)[C@]1(OC(C)=O)CO[C@@H]1C[C@@H]2O` [Paclitaxel], the “Normalized mitotic index (6 hours) DU145-TR” value in the data set with DU145-TR cells [1] is on record as 0.86. Also, the fold induction at 1 µM in the data set with PC-3M cells turned out to be 2.43; with PC-3MLN4 cells it was 2.34; in the data set on AT6.1 cells, 2.1. In the data set on DU145 cells [2], the “% Apoptotic cells (72 hours) DU145” value was determined as 37.3%. In addition, in the data set with PC3-TR cells [3], the “% Apoptotic cells (72 hours) PC3-TR” value was determined as 8.9%. In the data set on PC3 cells [4], the “% Apoptotic cells (72 hours) PC3” value was determined as 16.4%. Moreover, the “cytotoxic effect against DU145-TR (DU-145TxR)” value is “refractory” in [5] and “less effective” in [5] (listed as taxol). Moreover, the “Normalized mitotic index (6 hours) PC3” value with PC3 cells [6] was determined as 1.32. For the same molecule, the “growth of PC-3TxR tumors compared to the vehicle treated group” value with PC-3TxR cells is recorded as “significantly greater”. The “Normalized mitotic index (6 hours) DU145” value in the data set with DU145 cells [7] is given as 3.52. Also, the EC50 came out at 937 nM in data set [8] (Fa 0.50, listed as Tax); 936 nM in data set [8] (Fa 0.50); 1392 nM in data set [8] (Fa 0.60). The “% Apoptotic cells (72 hours) DU145-TR” value in the data set with DU145-TR cells [9] came to 11.5%. Moreover, in the data set with PC3-TR cells [10], the “Normalized mitotic index (6 hours) PC3-TR” value stood at 1.56. The “percent increase in life span (ILS %)” value in [11] amounted to 30.2%. The “cytotoxic effect against PC3-TR (PC-3TxR)” value was “refractory” in data set [12] and “less effective” in [12] (listed as taxol).
